Source: PMC6616128, “Liquiritin, as a Natural Inhibitor of AKR1C1, Could Interfere With the Progesterone Metabolism” (Frontiers in Physiology, 2019)
Changes are numbered by the printed parent chain. Like-named read-outs stand apart in the source and are kept apart here.

Legend:
AKR1C1 = target: T1, AKR1C1 (Homo sapiens, UniProt Q04828); test: Enzyme activity (NADPH) assay with s-tetralol, recombinant GST-AKR1C1; assay type: biochemical; parameters: made in house; host or cells: Escherichia coli JM109; settings: for enzyme activity: CON 192.295568;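 for all read-outs here: GST-fused AKR1C1 expressed in E. coli and purified by glutathione affinity, control wells received DMSO instead of compound, duplicate samples from a single experiment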
T1 sequence (Q04828 1-323): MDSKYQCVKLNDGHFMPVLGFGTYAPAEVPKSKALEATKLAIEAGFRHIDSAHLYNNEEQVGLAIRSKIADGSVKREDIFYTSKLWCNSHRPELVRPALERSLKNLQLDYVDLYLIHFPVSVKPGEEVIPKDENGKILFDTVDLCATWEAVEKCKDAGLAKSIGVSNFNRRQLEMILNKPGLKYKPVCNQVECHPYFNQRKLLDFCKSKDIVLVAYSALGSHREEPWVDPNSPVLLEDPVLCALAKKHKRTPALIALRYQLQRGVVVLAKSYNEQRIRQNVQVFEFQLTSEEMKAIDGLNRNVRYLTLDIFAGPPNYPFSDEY
Description: GST-tagged recombinant AKR1C isoforms expressed JM109 was grown in Luria-Bertani broth (100 μg⋅ml-1 ampicillin, pH = 7.0) at 37°C with orbital shaking at 220 rpm. When cells achieved an OD600 nm between 0.4 and 0.6, 0.3 mM final concentration of isopropyl β-D-1-thiogalactopyranoside (IPTG) was added to the cultures and incubated for an additional 12 h at 25°C. Cells were harvested by centrifugation at 8000 g for 10 min, and the cell pellets were stored at -80°C for storage. The pellets were resuspended in 1 × PBS, pH = 7.4 and lysed by ultrasonication at ice-cold temperature using an UH-03 union instrument. The purification of glutathione-S-transferase (GST)-fusion AKR1C1, AKR1C2, and AKR1C3 were then carried out using ÄKTA systems from GE Healthcare as described in Handbook. The recombinant proteins were eluted in 50 mM Tris–HCl (pH = 8.0) with 20 mM reduced glutathione, fresh preparedly. Protein concentrations were determined using the Bradford protein assay kit. All proteins were aliquoted and stored at -80°C containing 20% glycerol.
(§1) To screen for the indicated inhibitor, the assay mixture was added with additional DMSO or 2 μM compounds. […] The inhibition patterns were determined by fitting initial velocity and inhibitor concentration into inhibition models using Graphpad Prism 6.0. All inhibition data were obtained from single experiments, with samples conducted in duplicate.
Firstly, we overexpressed recombinant human AKR1C in E. coli in the form of a GST-fusion protein, and then purified it by affinity chromatography on glutathione-Sepharose.
To screen for the inhibitors of AKR1C1, we developed a readily accessible indirect NADPH generating-based assay that can be used for high-throughput inhibitors screening. […] Wells were included containing enzyme and no inhibitor or 2 μM inhibitor.

recombinant AKR1C2 = target: T2, recombinant AKR1C2 (Homo sapiens, UniProt P52895); test: Enzyme activity (NADPH) assay with s-tetralol, recombinant GST-AKR1C2; assay type: biochemical; settings: GST-AKR1C2; S-tetralol/NADP+
T2 construct: made in house; host or cells: Escherichia coli JM109
T2 sequence (P52895 1-323): T1 sequence (Q04828 1-323) with T38V, R47H, L54V, C87S, V151M, R170H, Q172L
Description: (§2) Protein concentrations were determined using the Bradford protein assay kit.
as §1
(§3) Each experiment was repeated three times and the differences among means were significant determined by Student t-text (^∗p < 0.05; ^∗∗p < 0.01; ^∗∗∗p < 0.001).

recombinant AKR1C3 = target: T3, recombinant AKR1C3 (Homo sapiens, UniProt P42330); settings: GST-AKR1C3; S-tetralol/NADP+
T3 sequence (P42330 1-323): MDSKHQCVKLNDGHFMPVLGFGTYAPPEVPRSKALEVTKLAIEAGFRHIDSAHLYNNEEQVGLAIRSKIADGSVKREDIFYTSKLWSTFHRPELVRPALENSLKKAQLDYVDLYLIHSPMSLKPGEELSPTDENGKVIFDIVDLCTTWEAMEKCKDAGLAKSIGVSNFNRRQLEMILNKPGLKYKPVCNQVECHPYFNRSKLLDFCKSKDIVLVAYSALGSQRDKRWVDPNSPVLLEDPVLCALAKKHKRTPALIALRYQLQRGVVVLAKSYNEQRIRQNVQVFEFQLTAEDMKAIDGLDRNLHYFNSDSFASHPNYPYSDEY
Description: as §2, §1, §3

[1] = 2 μM compound, Supplementary Table 1, CON 0.0122
[2] = 2 μM compound, Supplementary Table 1
[3] = 2 μM compound, Supplementary Table 1, CON = 1, read-out: ratio (activity relative to CON)
[4] = 2 μM compound, Supplementary Table 1, read-out: % inhibition
[5] = 2 μM compound, Supplementary Table 1, CON = 1

| Compound | slope (AKR1C1; [1]) | enzyme activity (AKR1C1; [2]) [nmol/min/mg] | remaining activity at 2 µM (AKR1C1; [3]) [%] | inhibition at 2 µM (AKR1C1; [4]) [%] | % inhibition (AKR1C1; [2]) [%] | ratio (activity relative to CON) (AKR1C1; [5]) | other results |
| --- | --- | --- | --- | --- | --- | --- | --- |
| COc1cc(/C=C/C(=O)CC(=O)/C=C/c2ccc(O)c(OC)c2)ccc1O [Curcumin] | 0.006283 | 99.03 | 51.5 | 48.5 |  |  |  |
| COc1cc(-c2oc3cc(O)cc(O)c3c(=O)c2O)ccc1O [Isorhamnetin] | 0.0125 | 197.0241 | 102 | -2.46 |  |  |  |
| C[C@H]1CC[C@@H]2N(C1)C[C@H]1[C@@H]3C[C@H]4[C@@H](C[C@H](O)[C@H]5C[C@@H](O)CC[C@@]54C)[C@@H]3CC[C@@H]1[C@]2(C)O [Peimine] | 0.0116 | 183.3338 |  |  | 4.66 | 0.9534 |  |
| COc1cc(C(=O)OCCCCN=C(N)N)cc(OC)c1O.Cl [Leonurine hydrochloride] | 0.007226 | 113.8912 |  |  | 40.77 | 0.5923 |  |
| O=c1c(O[C@@H]2O[C@H](CO)[C@@H](O)[C@H](O)[C@H]2O)c(-c2ccc(O)cc2)oc2cc(O)cc(O)c12 [Astragalin] | 0.007614 | 120.0159 | 62.4 | 37.6 |  |  |  |
| Hydroxysafflor yellow A |  | 138.7951 |  |  | 27.82 | 0.7218 | slope (AKR1C1): 0.008806 |
| C[C@H]1O[C@@H](O[C@H]2CC[C@@]3(C)[C@@H](CC[C@]4(C)[C@@H]3C=C[C@]35OC[C@@]6(CCC(C)(C)C[C@H]63)[C@H](O)C[C@]54C)[C@]2(C)CO)[C@H](O)[C@@H](O[C@@H]2O[C@H](CO)[C@@H](O)[C@H](O)[C@H]2O)[C@H]1O [Saikosaponin D] | 0.0115 | 181.8927 |  |  | 5.41 | 0.9459 |  |
| O=c1c(O[C@@H]2O[C@H](CO)[C@H](O)[C@H](O)[C@H]2O)c(-c2ccc(O)c(O)c2)oc2cc(O)cc(O)c12 [Hyperoside] | 0.0123 | 193.4665 | 101 | -0.61 |  |  |  |
| COc1cc2c(c(OC)c1OC)-c1c(cc3c(c1OC)OCO3)CC(C)C(C)C2 (stereo not drawn) [Schizandrin B] | 0.0151 | 238.2754 |  |  | -23.91 | 1.2391 |  |
| C[C@@H]1CC[C@@]2(OC1)O[C@H]1C[C@H]3[C@@H]4CC=C5C[C@@H](O[C@@H]6O[C@H](CO)[C@@H](O[C@@H]7O[C@@H](C)[C@H](O)[C@@H](O)[C@H]7O)[C@H](O)[C@H]6O[C@@H]6O[C@@H](C)[C@H](O)[C@@H](O)[C@H]6O)CC[C@]5(C)[C@H]4CC[C@]3(C)[C@H]1[C@@H]2C [Dioscin] | 0.0134 | 211.8854 | 110 | -10.2 |  |  |  |
| COc1c(O[C@@H]2O[C@H](C(=O)O)[C@@H](O)[C@H](O)[C@H]2O)cc(O)c2c(=O)cc(-c3ccccc3)oc12 [Wogonoside] | 0.0133 | 209.3635 |  |  | -8.88 | 1.0888 |  |
| CC(C)(C)[C@]1(O)CC2OC(=O)CC23C(=O)OC2OC(=O)[C@H](O)C231 (stereo partly drawn) [Bilobalide] |  | 120.151 |  |  |  |  | inhibition at 2 µM (AKR1C1): 37.5%; slope (AKR1C1): 0.007623; remaining activity at 2 µM (AKR1C1; read-out: ratio (activity relative to CON)): 62.5% |
| COc1cc(C[C@H]2C(=O)OC[C@@H]2Cc2ccc(OC)c(OC)c2)ccc1O [Arctigenin] | 0.0129 | 203.0137 | 106 | -5.57 |  |  |  |
| CC(C)=CCC[C@](C)(O[C@@H]1O[C@H](CO)[C@@H](O)[C@H](O)[C@H]1O)[C@H]1CC[C@]2(C)[C@@H]1[C@H](O)C[C@@H]1[C@@]3(C)CC[C@H](O)C(C)(C)[C@@H]3CC[C@]12C [Ginsenoside CK] | 0.0123 | 193.3764 |  |  | -0.56 | 1.0056 |  |
| CC(C)=CCc1cc2c(cc1O)oc(=O)c1c3ccc(O)cc3oc21 [Psoralidin] | 0.0119 | 187.9723 |  |  | 2.25 | 0.9775 |  |
| COc1cc(O)c2c(c1)C(=O)c1cc(C)cc(O)c1C2=O [Emodin-3-methyl ether] | 0.0128 | 201.0772 |  |  | -4.57 | 1.0457 |  |
| Schisantherin A | 0.0132 | 208.778 |  |  | -8.57 | 1.0857 |  |
| O=C([O-])C(O)Cc1ccc(O)c(O)c1.[Na+] (stereo not drawn) [Sodium Danshensu] | 0.0105 | 165.3652 |  |  | 14 | 0.86 |  |
| CC(C)=CCOc1c2occc2cc2ccc(=O)oc12 [Imperatorin] | 0.0117 | 184.7298 | 96.1 | 3.93 |  |  |  |
| O=c1c(O[C@@H]2O[C@H](CO)[C@@H](O)[C@H](O)[C@H]2O)c(-c2ccc(O)c(O)c2)oc2cc(O)cc(O)c12 [Isoquercitrin] | 0.007797 | 122.898 | 63.9 | 36.1 |  |  |  |
| O[C@H]1CCCc2ccccc21 [S-tetralol, S-(+)-1,2,3,4-tetrahydro-1-naphthol] |  |  |  |  |  |  | Kcat (recombinant AKR1C2): 0.0962 s⁻¹; Km (recombinant AKR1C2): 103 µM; Vmax (recombinant AKR1C2): 94.58 nmol/min/mg; Kcat (recombinant AKR1C3): 0.553 s⁻¹; Km (recombinant AKR1C3): 851 µM; Vmax (recombinant AKR1C3): 543.90 nmol/min/mg; Kcat (AKR1C1; GST-AKR1C1, S-tetralol/NADP+): 0.2065 s⁻¹; Km (AKR1C1; GST-AKR1C1, S-tetralol/NADP+): 23.5 µM; Vmax (AKR1C1; GST-AKR1C1, S-tetralol/NADP+): 203.10 nmol/min/mg; catalytic efficiency (AKR1C1; recombinant AKR1C1): 0.53 min^-1/μM^-1 |
| O=c1c2cc(O)c(O)cc2oc2cc(O)c([C@@H]3O[C@H](CO)[C@@H](O)[C@H](O)[C@H]3O)c(O)c12 [Mangiferin] | 0.009429 | 148.6125 | 77.3 | 22.7 |  |  |  |
| COc1c(O)cc(O)c2c(=O)cc(-c3ccccc3)oc12 [Wogonin] | 0.00272 | 42.8725 | 22.3 | 77.7 |  |  | remaining activity at 2 µM (AKR1C1; 2 μM compound, Figure 1A, read-out: % Enzyme Activity): 22.3%; remaining activity at 2 µM (AKR1C1; 2 μM compound, text on Figure 1A, read-out: inhibitory effect over AKR1C1 enzyme activity (% inhibition)): 22.3% |
| COc1cc2c(c(OC)c1OC)-c1c(cc3c(c1OC)OCO3)C[C@H](C)[C@@](C)(O)C2 [Schisandrol B] | 0.0137 | 215.6683 | 112 | -12.2 |  |  |  |
| CC1(C)O[C@H]1COc1c2ccoc2cc2oc(=O)ccc12 [Oxypeucedanin] | 0.0122 | 192.3856 | 100 | -0.05 |  |  |  |
| COc1ccc(-c2cc(=O)c3c(OC)c(OC)c(OC)c(OC)c3o2)cc1 [Tangeretin] | 0.0133 | 209.3185 | 109 | -8.85 |  |  |  |
| O=c1c(-c2ccc(O)cc2)coc2cc(O)ccc12 [Daidzein] | 0.007957 | 125.4199 | 65.2 | 34.8 |  |  |  |
| O=c1c(-c2ccc(O)cc2)coc2cc(O[C@@H]3O[C@H](CO)[C@@H](O)[C@H](O)[C@H]3O)cc(O)c12 [Genistin] | 0.0129 | 203.1488 | 106 | -5.64 |  |  |  |
